Results on three compounds are retold here after paper PMC3833878, “In Silico Molecular Comparisons of C. elegans and Mammalian Pharmacology Identify Distinct Targets That Regulate Feeding” (PLoS Biology, 2013).

The term EC50 denotes the concentration at which the effect is half-maximal. For orientation: Ki means a measure of affinity in units of concentration, obtained from inhibition or displacement. One may read the IC50 as the concentration that gives 50% inhibition.

One assay deals with tkr-1(RNAi) C. elegans. The experiment in a line: Pharyngeal pumping assay, compound on RNAi-treated animals. It counts as in vivo. The procedure: Synchronized first larval stage C. elegans were cultured for 3 d at 20°C on a lawn of HT115 E. coli induced with IPTG to express double-stranded RNAi as described.
Compounds at 1,000× stock concentrations (0.1–10 mM) in DMSO or an equal volume of DMSO were diluted in a suspension of E. coli OP-50 (100 µl of a 3× concentrated overnight culture in LB broth) and absorbed as a single drop onto 3.5 cm plates containing 2.5 ml of NGM agar forming a well-defined lawn of bacteria. […] Pharyngeal pumping was counted by live observation at 115–200× magnification using a stereo microscope and recorded at 10 s intervals using a manually controlled digital cell counter. Alternatively, C. elegans pumping was recorded for longer intervals (30–60 s) using bright-field time-lapse microscopy at 120× magnification with a 20 images per second acquisition rate. The resulting movies were analyzed manually at a playback rate of 10 images per second.
Significance was determined by one-way ANOVA applying a Dunnett's posttest when comparing multiple treatments to a single control and a Bonferroni posttest when comparing the more than two treatments against one another. For pairwise nonrepeated measured comparisons, a student's t test was used. […]

For assay [1], the system named is mgl-2(tm355) mutant C. elegans. As to the kind of experiment: Pharyngeal pumping assay, compound on high-feeding mutant. The class given is in vivo. The note with it: percentage of the mutant's pumping rate on DMSO; 10 µM B16, D20, K9, F15, H6; 200 nM L-371257, SB 222200; 2 µM MMPIP, 5-flurox. As for the experimental part: (§1) Compounds at 1,000× stock concentrations (0.1–10 mM) in DMSO or an equal volume of DMSO were diluted in a suspension of E. coli OP-50 (100 µl of a 3× concentrated overnight culture in LB broth) and absorbed as a single drop onto 3.5 cm plates containing 2.5 ml of NGM agar forming a well-defined lawn of bacteria. For developmental exposures, 20–30 synchronized first larval stage C. elegans derived from alkaline hypochlorite treatment of gravid adults were applied to the preseeded plates and cultured until assay at mid-L4 stage (2 d, 20°C) or as day 1 gravid adults (3 d, 20°C). For naïve adult exposures, synchronized first larval stage animals were cultured on NGM-agar plates seeded with E. coli OP-50 for 3 d at 20°C, then transferred to assay plates, and pumping was assayed 1 to 16 h later. Comparisons between vehicle-treated and compound-treated animals were always performed between animals at the same developmental stage and same exposure time. Pharyngeal pumping was counted by live observation at 115–200× magnification using a stereo microscope and recorded at 10 s intervals using a manually controlled digital cell counter. Alternatively, C. elegans pumping was recorded for longer intervals (30–60 s) using bright-field time-lapse microscopy at 120× magnification with a 20 images per second acquisition rate. The resulting movies were analyzed manually at a playback rate of 10 images per second.
(§2) Significance was determined by one-way ANOVA applying a Dunnett's posttest when comparing multiple treatments to a single control and a Bonferroni posttest when comparing the more than two treatments against one another. For pairwise nonrepeated measured comparisons, a student's t test was used. To express data as a percentage of control, the pumping rates of compound-treated animals were divided by the mean pumping rate of the DMSO-treated wild-type animals measured in the same experiment, unless indicated otherwise. Error bars on the control samples indicate the variation around that mean, which is utilized in all statistical calculations.
(§3) The pumping rates are expressed as a percentage of the mutant’s pumping rate on DMSO, the vehicle control. p-values were calculated relative to DMSO treatment of each mutant by one-way ANOVA using Dunnett’s multiple comparison test.

In assay [2] the test system is gnrr-3(tm4152) mutant C. elegans. Described as above. It counts as in vivo. Conditions: percentage of the mutant's pumping rate on DMSO; 10 µM B16, D20, K9, F15, H6; 200 nM L-371257, SB 222200; 2 µM MMPIP, 5-flurox. The procedure: as §1, §2, §3
Assay [3] relates to ver-3(ok891) mutant C. elegans. The description is as above. The class given is in vivo. Conditions: percentage of the mutant's pumping rate on DMSO; 10 µM B16, D20, K9, F15, H6; 200 nM L-371257, SB 222200; 2 µM MMPIP, 5-flurox. The procedure:
as §1, §2, §3

Assay [4] deals with gnrr-1(ok238) mutant C. elegans. The assay is described as above. Conditions: percentage of the mutant's pumping rate on DMSO; 10 µM B16, D20, K9, F15, H6; 200 nM L-371257, SB 222200; 2 µM MMPIP, 5-flurox. The class given is in vivo. As for the experimental part: as §1, §2, §3
In assay [5] the test system is ver-2(ok897) mutant C. elegans. The assay is described as above. The class given is in vivo. Conditions: percentage of the mutant's pumping rate on DMSO; 10 µM B16, D20, K9, F15, H6; 200 nM L-371257, SB 222200; 2 µM MMPIP, 5-flurox. The procedure: as §1, §2, §3
Another assay deals with wild-type C. elegans. As to the kind of experiment: Pharyngeal pumping assay. It counts as in vivo. The note with it: for EC50: Caenorhabditis elegans, read-out: EC50 of the dose-dependent increase in the pharyngeal pumping rate. The procedure:
as §1, §2

The next assay addresses Oxtr. Set-up: method as in PMID 7473590. The note with it: cited from earlier work.
A further assay concerns the target tachykinin receptor-3 (Homo sapiens, UniProt P29371). As to the kind of experiment: Cell-based Ca flux assay (Multispan). The procedure:
(§4) Tachykinin, ghrelin, and calcium-sensing receptor activity were measured using a cell-based Ca flux assay by Multispan, Inc. (Hayward, California). Cholescystokinin A and B receptors were assayed for effects on cAMP production, and nicotinic acid receptor activity was measured in a cell-based assay of forskolin-stimulated cAMP production by Multispan, Inc. […], PP2A phosphatase activity assays were performed by CEREP (Celle l'Evescault, France) using PP2A from human erythrocytes. Phospholipase C from Bacillus cereus was assayed by CEREP, Inc. using glycero-phosphatidyl ethanolamine as a substrate, monitoring diacyl glycerol production. Radioligand binding assays for PPAR-α, γ, δ and the androgen receptor were performed by CEREP, Inc. CARNA Biosciences (Kobe, Japan) performed in vitro kinase activity assays using recombinant catalytic domains and measured phosphorylation of an Src-derived peptide for Flt-3 and phosphatidyl inositol for PI3KCA. Radioligand binding assays for the oxytocin receptor, D4 dopamine receptor, cannabinoid CB2 receptor, and angiotensin type I and II receptors were performed as described previously, as were cell-based activity assays for mGluR 1a, 2, 4, 5, 6, and 8 [60]–[62].

For another assay, the target named is tachykinin receptor-2 (Homo sapiens, UniProt P21452). As to the kind of experiment: Cell-based Ca flux assay (Multispan). The procedure: as §4
The subject of a further assay is C. elegans. Set-up: method as in earlier work. The note with it: earlier phenotypic screen ref 11; cited from earlier work.
The target in the next assay is tachykinin receptor-1 (Homo sapiens, UniProt P25103). The experiment in a line: Cell-based Ca flux assay, cells stimulated by neurokinin-1 peptide (Multispan). Conditions: marked with footnote d in Figure 2. The procedure:
as §4
Supplementary file pbio.1001712.s001.tif: Figure S1 Dose-response measurements that validate SEA predictions for GPCRs. […]

For the next assay, the target named is Flt-3 receptor. Set-up: method as in PMID 20153646. Conditions: cited from earlier work.

Sequence of tachykinin receptor-1 (P25103 whole entry): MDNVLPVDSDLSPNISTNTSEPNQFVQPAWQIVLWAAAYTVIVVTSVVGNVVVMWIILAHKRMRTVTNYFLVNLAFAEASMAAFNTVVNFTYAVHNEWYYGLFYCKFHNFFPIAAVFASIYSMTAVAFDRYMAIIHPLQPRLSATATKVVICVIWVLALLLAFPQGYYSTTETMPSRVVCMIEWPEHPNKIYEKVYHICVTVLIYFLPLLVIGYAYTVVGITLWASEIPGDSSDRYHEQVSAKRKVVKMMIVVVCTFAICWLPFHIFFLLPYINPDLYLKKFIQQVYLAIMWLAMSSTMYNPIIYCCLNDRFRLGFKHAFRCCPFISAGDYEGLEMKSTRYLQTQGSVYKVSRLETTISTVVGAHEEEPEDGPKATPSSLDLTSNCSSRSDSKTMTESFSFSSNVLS
Sequence of tachykinin receptor-3 (P29371 whole entry): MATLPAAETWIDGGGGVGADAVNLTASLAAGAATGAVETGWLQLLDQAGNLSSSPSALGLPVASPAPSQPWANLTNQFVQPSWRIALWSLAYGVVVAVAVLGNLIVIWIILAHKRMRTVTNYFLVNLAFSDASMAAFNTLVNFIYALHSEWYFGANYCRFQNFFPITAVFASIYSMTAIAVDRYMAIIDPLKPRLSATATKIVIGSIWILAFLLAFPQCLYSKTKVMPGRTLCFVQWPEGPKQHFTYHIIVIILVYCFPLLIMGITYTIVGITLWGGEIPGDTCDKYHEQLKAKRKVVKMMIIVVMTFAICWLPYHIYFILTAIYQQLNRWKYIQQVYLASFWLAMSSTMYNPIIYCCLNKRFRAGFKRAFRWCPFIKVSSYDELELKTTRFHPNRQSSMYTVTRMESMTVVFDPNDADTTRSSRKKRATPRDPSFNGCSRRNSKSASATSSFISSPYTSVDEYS
Sequence of tachykinin receptor-2 (P21452 whole entry): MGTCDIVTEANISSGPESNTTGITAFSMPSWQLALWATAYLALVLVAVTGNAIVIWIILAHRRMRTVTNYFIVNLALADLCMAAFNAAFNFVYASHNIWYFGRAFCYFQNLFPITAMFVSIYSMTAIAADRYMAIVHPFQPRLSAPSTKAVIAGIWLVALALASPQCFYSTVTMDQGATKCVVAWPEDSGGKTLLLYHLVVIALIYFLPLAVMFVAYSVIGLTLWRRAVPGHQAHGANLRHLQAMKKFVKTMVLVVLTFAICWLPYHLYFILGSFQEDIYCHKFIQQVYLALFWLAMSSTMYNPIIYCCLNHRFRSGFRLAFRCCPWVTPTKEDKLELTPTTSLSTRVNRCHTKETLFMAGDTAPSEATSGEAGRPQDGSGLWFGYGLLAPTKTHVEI

Turning to `COc1cc(OC2CCN(C(C)=O)CC2)ccc1C(=O)N1CCC(N2C(=O)OCc3ccccc32)CC1` [L-371257, 1-(1-[4-[(N-acetyl-4-piperidinyl)oxy]-2-methoxybenzoyl]piperidin-4-yl)-4H-3,1-benzoxazin-2(1H)-one, reference compound], the “pharyngeal pumping rate, mean” value with tkr-1(RNAi) C. elegans (percentage of the pumping rate of tkr-1(RNAi) animals on DMSO, 10 µM B16, D20, K9, F15, H6, 200 nM L-371257, SB 222200, 2 µM MMPIP, 5-flurox) was determined as 109.9%; in [1], 105.0%; in assay [2], 108.5%; in [3] it was 94.8%; in assay [4], 99.2%; in assay [5] it was 100.8%. The EC50 with wild-type C. elegans came out at 10 nM. Besides, the Ki at Oxtr is 4.6 nM.
With `COc1ccc(OC)c(-c2cc(NC(=O)c3ccccc3C(N)=O)c3ccccc3n2)c1` [H6], in the assay with tkr-1(RNAi) C. elegans (to C. elegans tkr-1 (C38C10.1), homolog of human Tkr-1), the Pharmacological relationship entry was “antagonist”. For the same compound, in the assay with wild-type C. elegans (10 µM, cultured 3 d from L1, long-term video (60 s) and short-term manual (10 s) measurements), the “increase in pharyngeal pumping” value is listed as 7%–12%. Moreover, in the assay with wild-type C. elegans (10 µM, naïve day 1 gravid adults), the “exposure time after which the feeding elevating effect was notable” value is recorded as roughly 16 h. In the assay with wild-type C. elegans (wild-type, 10 µM versus 0.1% DMSO), the “effect on the pharyngeal pumping rate” value is “increased”. Further, the Ki on tachykinin receptor-3 was greater than 10 µM; on tachykinin receptor-2 it was greater than 10 µM; on tachykinin receptor-1, 1900 nM. Further, in the assay on C. elegans, the “Nile Red staining” value was “increased”.
On to `O=C1Nc2ccc(F)cc2/C1=C1/Nc2ccccc2C1=NO` [5-flurox, 5′-fluoroindirubinoxime, reference compound], for which the EC50 with wild-type C. elegans is 40 nM. For the same compound, the 50% inhibitory concentration (IC50) at Flt-3 receptor is 15 nM.
